Several values for one entry are separate records, joined by “and”; a condition that tells them apart may be missing. Identical values can stand only once. Entries after “also recorded” stand apart in the source; their conditions may differ. Like-named read-outs stand apart in the source and are kept apart here.
Legend:
[1] = Mouse hepatic microsome stability; format: in vitro ADME; conditions: mouse hepatic microsomes
IL-4 [2] = molecular target: T1, IL-4 (Homo sapiens, UniProt P05112); test: HEK-Blue IL-4/IL-13 reporter assay, IL-4 inhibition; format: cell-based; conditions: for inhibition at 10 µM: HEK-Blue; for inhibition at 10 µM / % Inhibition: IL-4, HEK Blue IL-4/IL-13 reporter assay, 10 μM; for EC50: dose response, IL-4 inhibition; for Hill coefficient: fit of dose response in HEK Blue IL-4/IL-13 reporter assay
T1 construct: purchased Acros Biosystems IL4-H4218; host or cells: HEK-293
T1 sequence (P05112 25-153): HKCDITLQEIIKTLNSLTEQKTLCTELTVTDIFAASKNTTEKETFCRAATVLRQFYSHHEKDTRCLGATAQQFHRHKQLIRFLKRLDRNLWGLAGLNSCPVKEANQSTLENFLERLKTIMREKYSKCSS
Method: HEK-Blue IL-4/IL-13 Inhibition assay. HEK-Blue IL-4/IL-13 reporter cell lines were purchased from Invivogen and cultured in DMEM with 10% Heat Inactivated Fetal Bovine Serum (FBS), 100 U/ml-100 μg/ml Pen-Strep, 10 μg/ml blasticidin, 100 μg/ml Normocin and 100 μg/ml Zeocin. Cells were tested for secreted embryonic alkaline phosphatase (SEAP) production induced by IL-4 alone prior to small molecule screening.
22.5 μl of small molecule in DMEM 4% DMSO was added to 22.5 μl of 1 ng/ml IL-4 in DMEM in a non-binding 96-well reaction plate for 30 minutes at room temperature. The reaction plate was further incubated for 30-60 min at 37° C. HEK-Blue IL-4/IL-13 reporter cell line was used between passages 11-17. […] Measurements were done in triplicate. The plate was incubated for ˜22-24 hours at 37° C./5% CO2. Quanti-Blue dye was prepared as per the manufacturer's recommendation and 160 μl was dispensed in each well of a 96-well plate (avoid edges to avoid evaporation), 40 μl of cell supernatant was added to the same plate and incubated for 3 hours at 37° C./5% CO2. Optical density was then measured at 650 nm using Molecular Devices SpectraMax M5 Microplate reader. Data was analyzed and plotted using GraphPad Prism 9.2.0.

Mouse plasma stability = format: in vitro ADME
IL-4 [3] = molecular target: T1, IL-4; test: HEK-Blue IL-4/IL-13 reporter assay, IL-4 inhibition; format: cell-based; conditions: control: cells with 10 μM compound only, no IL-4
[4] = PAMPA membrane permeability; format: in vitro ADME; conditions: 18 hours incubation
Method: PVDF membranes purchased from Bioassay Systems PAMPA-096 were coated with 5 μL of 4% Phosphatidylcholine (Lecithin, MP Biomedicals 0210214780) in dodecane. […] Permeability was calculated by Pv=C×ln (1−ODA/ODE) cm/s, where ODA is the absorbance of acceptor solution minus blank, and ODE the absorbance of the equilibrium standard minus blank, and C=7.72×10^−6 using an 18-hour incubation time.

Human plasma stability = format: in vitro ADME
[5] = test system: IL-4 induced pSTAT-6 in THP-1 cells; test: THP-1 pSTAT-6 immunofluorescence
Method: IL-4 and analogs or vehicle (DMEM with 2% DMSO) were preincubated for 2 hours at 37° C. After the incubation, IL-4 or IL-4/analogs were incubated with THP-1 cells for 30 min at 37° C./5% CO2. Incubated cells were centrifuged for 5 min at 250×g. After aspirating the supernatant, cells were resuspended in 1×PBS and plated into a MatTek dish coated with Cell Tak adhesive for 30 minutes at room temperature. Cells were fixed with 4% Paraformaldehyde for 1 hour at room temperature. Cells were rinsed twice with 1×PBS and then permeabilized with 0.5% Triton-X for 1 hour at room temperature. Cells were rinsed again with 1×PBS, and blocked for an hour in superblock with 0.05% Tween-20, rinsed twice, and then incubated with anti-pSTAT-6 1:100 diluted in superblock 0.05% Tween-20 overnight at 4° C. (parafilmed to avoid evaporation). Cells were rinsed thrice with 1×PBS and then incubated with Mouse anti-rabbit IgG(H+L) Secondary Antibody-Alexa Fluor 647 for 1 hour at room temperature in the dark. […] Cells were rinsed twice with 1×PBS and left in 1 ml of 1×PBS. Confocal Imaging was done using an Olympus FV10i and images were processed using FIJI.

B16-F10 cells = test: In vitro cytotoxicity (CellTiter-Glo); format: cell-based; conditions: up to 25 μM
Method: CellTiter-Glo 2.0 purchased from Promega G9242) was used to measure cell viability with the Victor-3 plate reader (PerkinElmer) after 24 hours in concentrations of compound up to 25 μM. Vehicle was used as a negative control for both cytotoxicity and growth inhibition, methanol was used as a positive control for cytotoxicity, and 1% FBS was used as a positive control for growth inhibition.

soluble IL-4 = molecular target: T2, soluble IL-4 (Homo sapiens, UniProt P05112); test: Differential scanning fluorimetry (thermal shift), IL-4; format: binding; conditions: soluble IL-4, 2 μM compound, 0.1% DMSO; read-out: Tm shift
T2 sequence (P05112 25-153): T1 sequence (P05112 25-153)
Method: DSF was performed using BioRad CFX384.

[6] = test system: IL-4 induced STAT-6 phosphorylation in THP-1 monocytes (type II IL-4 receptor); test: THP-1 STAT-6 phosphorylation assay (western blot); format: cell-based
Method: THP-1 cells were received as a gift from the laboratory of Dr. Mark Grinstaff and maintained in RMPI-1640 with […] heat-inactivated Fetal Bovine Serum and 50 μM beta-mercaptoethanol. Cells used for assays were between passages 6 and 10, 10 ng/mL IL-4 was preincubated with experimental sample (vehicle or analogs) for 30 minutes at 37° C. 1 mL of each solution was then added to a pellet of 2 E6 THP-1 cells and pipetted up and down. THP-1 cells were incubated for 30 minutes in the incubator at 37 C/5% CO2. Cells were then spun down and lysed with 200 μL ice-cold RIPA buffer complete with phosphatase and protease inhibitors. Cell lysates were incubated on ice for 30 minutes, spun down and the supernatants were stored at −20° C. until western blot analysis. Undiluted cell lysates were run on SDS-PAGE and transferred to Immunoblot PVDF membrane using Biorad equipment. Membranes were incubated with 1:1000 primary antibody overnight at 4° C. Membranes were then incubated with 1:50,000 dilution secondary for 1 hour at room temperature. Membranes were then exposed to Femto ECL for 5 minutes and imaged using a Bio-Rad Gel Doc. The brightness/contrast was adjusted in FIJI and the area under the curve of each lane was quantified. The phosphorylated STAT-6 to STAT-6 ratio was calculated and normalized to the amount of total STAT-6. The data was plotted and analyzed using GraphPad Prism 9.2.0′.

IL-13 [7] = molecular target: T3, IL-13 (Homo sapiens, UniProt P35225); test: HEK-Blue IL-4/IL-13 reporter assay, IL-13 inhibition; format: cell-based
T3 sequence (P35225 25-146): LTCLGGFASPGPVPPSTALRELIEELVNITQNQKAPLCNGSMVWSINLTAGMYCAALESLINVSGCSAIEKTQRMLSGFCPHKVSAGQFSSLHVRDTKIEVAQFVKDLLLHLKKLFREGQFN
Method: Prior to screening. […] The solution was added to preincubated cells in a 96-well culture plate. The supernatant was then incubated with Quanti-Blue dye for 3 hours and absorbance was measured at 650 nm. Data was analyzed and plotted using GraphPad Prism 9.2.0.

[8] = test system: IL-4 induced STAT-6 phosphorylation in Ramos B lymphocytes (type I IL-4 receptor); test: Ramos STAT-6 phosphorylation assay (western blot); format: cell-based; conditions: for inhibition at 0.5 µM: read-out: percent inhibition of STAT-6 phosphorylation; for inhibition of phosphorylation of STAT-6: 50 nM
Method: Ramos cells were purchased from ATCC and maintained in RMPI-1640 with 10% heat-inactivated Fetal Bovine Serum. Cells used for assays were between passages 4 and 8. […] Undiluted cell lysates were run SDS-PAGE and transferred to Immunoblot PVDF membrane using Biorad equipment. Membranes were incubated with 1:1000 primary antibody overnight at 4° C. Membranes were then incubated with 1:50,000 dilution secondary for 1 hour at room temperature. Membranes were then exposed to Femto ECL for 5 minutes and imaged using a Bio-Rad Gel Doc. The brightness/contrast was adjusted in FIJI and the area under the curve of each lane was quantified. The phosphorylated STAT-6 to STAT-6 ratio was calculated and normalized to the amount of total STAT-6. The data was plotted and analyzed using GraphPad Prism 9.2.0.

[9] = molecular target: IL-4 induced STAT-6 phosphorylation in THP-1 monocytes (type II IL-4 receptor); conditions: previously reported, read-out: EC50 of inhibition of STAT-6 phosphorylation; cited from earlier work
[10] = test system: murine IL-4 induced STAT-6 phosphorylation in RAW 264.7 macrophages; test: RAW 264.7 STAT-6 phosphorylation assay (western blot); format: cell-based
Method: RAW 264.7 cells were purchased from ATCC and maintained in DMEM with 10% heat-inactivated Fetal Bovine Serum. Cells used for assays were between passages 3 and 5. […] The undiluted cell lysates were run SDS-PAGE followed by transfer to Immunoblot PVDF membrane using Biorad equipment. Membranes were incubated with 1:1000 primary antibody overnight at 4° C. Membranes were then incubated with 1:50,000 dilution secondary for 1 hour at room temperature. Membranes were then exposed to Femto ECL for 5 minutes and imaged using a Bio-Rad Gel Doc. The brightness/contrast was adjusted in FIJI and the area under the curve of each lane was quantified. The phosphorylated STAT-6 to STAT-6 ratio was calculated and normalized to the amount of total STAT-6. The data was plotted and analyzed using GraphPad Prism 8.

IL-13 [11] = molecular target: T3, IL-13; conditions: previously reported; cited from earlier work
[12] = HEK Blue IL-4/IL-13 reporter assay, read-out: EC50

## N#Cc1c(-c2ccc(O)c(O)c2)cc(C23CC(C2)C3)nc1N [1A/54, 6-(bicyclo[1.1.1]pentan-1-yl)-4-(3,4-dihydroxyphenyl)-2-imino-2,3-dihydropyridine-3-carbonitrile]
[1]
  Mouse hepatic microsome stability (% remaining after 1 hour): 68.3%
IL-4 [2]; read-out: % Inhibition
  inhibition at 10 µM: 86.1%

## N#Cc1c(-c2ccc(O)c(O)c2)cc(-c2ccc(N)cc2)[nH]c1=N [Compound 14, 6-(4-aminophenyl)-4-(3,4-dihydroxyphenyl)-2-imino-1,2-dihydropyridine-3-carbonitrile]
Mouse plasma stability
  Mouse plasma stability (% remaining after 3 hours): > 99%
Mouse plasma stability; listed as Analog 14
  Mouse plasma stability (% remaining after 3 hours): >99%/>99%
IL-4 [3]
  Abs650: 0.05948 ± 0.000642
[4]
  Papp at 18 h, 100 μM: 6.2 ×10⁻⁶ cm/s
Human plasma stability; listed as Analog 14
  Human plasma stability (% remaining after 3 hours): >99%/>99%
[5]; 500 nM
  STAT-6 phosphorylation by immunofluorescence: significant reduction in STAT-6 phosphorylation
[5]; 5 μM
  STAT-6 phosphorylation by immunofluorescence: almost no visible STAT-6 phosphorylation
[1]
  Mouse hepatic microsome stability (% remaining after 1 hour): 75.4%
[1]; listed as Analog 14
  Mouse hepatic microsome stability (% remaining after 1 hour): 75.4%
B16-F10 cells
  Cytotoxicity in B16-F10 cells (24 hours): no toxicity
B16-F10 cells; listed as Analog 14
  Cytotoxicity in B16-F10 cells (24 hours): n.s. < 25 μM
Soluble IL-4
  ΔTm at 2 µM: 1.66 °C
[6]; Homo sapiens, THP-1 monocytes, western blot, normalized to STAT-6, read-out: EC50 of inhibition of STAT-6 phosphorylation
  EC50: 686 nM
[6]; total STAT-6, THP-1 cells
  STAT-6 levels: not impacted
IL-13 [7]; IL-13 EC50 versus IL-4 EC50
  fold less potent for IL-13 than for IL-4: 100 fold
IL-13 [7]; soluble IL-13 mediated signaling, HEK Blue IL-4/IL-13 reporter assay
  EC50: 18.2 µM
IL-4 [2]
  % Inhibition: 94.5% and 94.5 ± 1.58% and 94.5 ± 1.68%
  inhibition at 10 µM: > 80%
  Hill coefficient: 1.69±0.25
IL-4 [2]; [12]
  EC50: 670 ± 280 nM
IL-4 [2]; values in text, read-out: potency (EC50 of inhibition)
  EC50: 627 nM
[8]; Homo sapiens, Ramos
  inhibition at 0.5 µM: 31.4%
[8]; Ramos B lymphocytes
  inhibition of phosphorylation of STAT-6: minimum inhibition

## N#Cc1c(-c2cccnc2)cc(-c2ccc(F)cc2)[nH]c1=N [Compound 50, 6′-(4-fluorophenyl)-2′-imino-1′,2′-dihydro-[3,4′-bipyridine]-3′-carbonitrile]
IL-4 [2]
  inhibition at 10 µM: 10 ± 17.2%

## N#Cc1c(-c2ccc(O)c(C(=O)O)c2)cc(-c2ccc(F)cc2)[nH]c1=N [Compound 51, 5-(3-cyano-6-(4-fluorophenyl)-2-imino-1,2-dihydropyridin-4-yl)-2-hydroxybenzoic acid]
IL-4 [2]; read-out: % Inhibition
  inhibition at 10 µM: 54.6 ± 11.6%

## N#Cc1c(-c2ccc(O)c(Br)c2)cc(-c2ccc(F)cc2)[nH]c1=N [Compound 52, 4-(3-bromo-4-hydroxyphenyl)-6(4-fluorophenyl)-2-imino-1,2-dihydropyridine-3-carbonitrile]
IL-4 [2]
  inhibition at 10 µM: 58.8 ± 16.5%

## N#Cc1c(-c2ccc(O)c(I)c2)cc(-c2ccc(F)cc2)[nH]c1=N [Compound 53, 6(4-fluorophenyl)-4-(4-hydroxy-3-iodophenyl)-2-imino-1,2-dihydropyridine-3-carbonitrile]
IL-4 [2]
  inhibition at 10 µM: 58.9 ± 19.9%

## N#Cc1c(-c2ccc(O)c(O)c2)cc(-c2ccc(F)cc2)nc1N [Nico-52, 4-(3,4-dihydroxyphenyl)-6-(4fluorophenyl)-2-imino-1,2-dihydropyridine-3-carbonitrile, reference compound]
Mouse plasma stability
  Mouse plasma stability (% remaining after 3 hours): 97%
[4]
  Papp at 18 h, 100 μM: 16.4 ×10⁻⁶ cm/s
Human plasma stability
  Human plasma stability (% remaining after 3 hours): > 99%
[1]
  Mouse hepatic microsome stability (% remaining after 1 hour): 86.5%
B16-F10 cells
  Cytotoxicity in B16-F10 cells (24 hours): no toxicity; also recorded: n.s. < 25 μM
[9]
  EC50: 3.1 µM
[10]; Mus musculus, RAW264.7, RAW 264.7 macrophages, murine IL-4, read-out: EC50 of reduction in pSTAT-6 levels
  EC50: 1280 nM
[10]; total STAT-6, RAW 264.7
  STAT-6 levels: not affected
IL-4 [2]
  % Inhibition: 97.6 ± 1.57%
  Hill coefficient: 1.24±0.08
IL-4 [2]; read-out: % Inhibition
  inhibition at 10 µM: > 97%
IL-4 [2]; [12]
  EC50: 1320 ± 380 nM
[8]; Homo sapiens, Ramos B lymphocytes, 500 nM
  inhibition at 0.5 µM: 14.6%
[8]; Homo sapiens, Ramos B lymphocytes, western blot, read-out: EC50 of inhibition of STAT-6 phosphorylation
  EC50: 1030 nM
[8]; Ramos B lymphocytes
  inhibition of phosphorylation of STAT-6: minimum inhibition
IL-13 [11]
  fold higher inhibition for IL-4 activity than IL-13 activity: 10 fold
